# Results taken from patent US6525001B1, “Substituted pyrimidine and pyridine herbicides” (Mid-American Commercialization Corporation, priority 1997, dated 2003).
# Columns and labels:
# Test in all cases: Test B pre-/postemergence
# Format in all cases: in vivo
# Parameters in all cases: key: 0 is no effect; 10 is complete control
# [1] = system: bedstraw (Galium aparine)
# Procedure, shortened: (§1)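 Scored visually 0 (none) to 10 (complete control) against untreated plants after twelve to sixteen greenhouse days. Test chemicals, formulated in surfactant-containing non-phytotoxic solvent, applied to soil after planting and, separately, onto 1- to 4-leaf (2–18 cm) plants.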
# [2] = system: blackgrass (Alopecurus myosuroides)
# Procedure, shortened: as §1
# [3] = system: broadleaf signalgrass (Brachiaria decumbens)
# Procedure, shortened: as §1
# [4] = system: cocklebur (Xanthium strumarium)
# Procedure, shortened: as §1
# corn (Zea mays) = system: corn (Zea mays)
# Procedure, shortened: as §1
# [5] = system: crabgrass (Digitaria sanguinalis)
# Procedure, shortened: as §1
# [6] = system: momingglory (Ipomoea hederacea)
# Procedure, shortened: as §1
# [7] = system: pigweed (Amaranthus retroflexus)
# Procedure, shortened: as §1
# rape (Brassica napus) = system: rape (Brassica napus)
# Procedure, shortened: as §1
# soybean (Glycine max) = system: soybean (Glycine max)
# Procedure, shortened: as §1
# [8] = system: sugar beet (Beta vulgaris)
# Procedure, shortened: as §1
# [9] = system: velvetleaf (Abutilon theophrasti)
# Procedure, shortened: as §1
# [10] = system: wheat (Triticum aestivum)
# Procedure, shortened: as §1
# wild oat (Avena fatua) = system: wild oat (Avena fatua)
# Procedure, shortened: as §1
# [11] = Preemergence, Rate 62 g/ha, scale of 0 to 10
compound,measurement,setting,value
Cc1cnc(-n2ccc(C(F)(F)C(F)(F)F)n2)nc1C(=O)c1cccc(C(F)(F)F)c1 [Compound 68],"Plant response rating, Bedstraw",[1]; [11],3
same,Bedstraw plant response rating,"[1]; Rate 62 g/ha, Postemergence",5
same,Bedstraw plant response rating,"[1]; Rate 125 g/ha, Postemergence",6
same,"Plant response rating, Bedstraw","[1]; Rate 125 g/ha, Preemergence",5
same,"Plant response rating, Bedstraw","[1]; Rate 250 g/ha, Postemergence",9
same,"Plant response rating, Bedstraw","[1]; Rate 250 g/ha, Preemergence",6
same,"Plant response rating, Bedstraw","[1]; Rate 500 g/ha, Postemergence",10
same,"Plant response rating, Bedstraw","[1]; Rate 500 g/ha, Preemergence",6
same,"Plant response rating, Blackgrass",[2]; [11],3
same,Blackgrass plant response rating,"[2]; Rate 62 g/ha, Postemergence",2
same,Blackgrass plant response rating,"[2]; Rate 125 g/ha, Postemergence",3
same,"Plant response rating, Blackgrass","[2]; Rate 125 g/ha, Preemergence",5
same,"Plant response rating, Blackgrass","[2]; Rate 250 g/ha, Postemergence",4
same,"Plant response rating, Blackgrass","[2]; Rate 250 g/ha, Preemergence",7
same,"Plant response rating, Blackgrass","[2]; Rate 500 g/ha, Postemergence",5
same,"Plant response rating, Blackgrass","[2]; Rate 500 g/ha, Preemergence",7
same,B. signalgrass plant response rating,"[3]; Rate 62 g/ha, Postemergence",2
same,B. signalgrass plant response rating,"[3]; Rate 62 g/ha, Preemergence",5
same,B. signalgrass plant response rating,"[3]; Rate 125 g/ha, Postemergence",3
same,"Plant response rating, B. signalgrass","[3]; Rate 125 g/ha, Preemergence",8
same,"Plant response rating, B. signalgrass","[3]; Rate 250 g/ha, Postemergence",3
same,"Plant response rating, B. signalgrass","[3]; Rate 250 g/ha, Preemergence",9
same,"Plant response rating, B. signalgrass","[3]; Rate 500 g/ha, Postemergence",5
same,"Plant response rating, B. signalgrass","[3]; Rate 500 g/ha, Preemergence",10
same,"Plant response rating, Cocklebur",[4]; [11],0
same,Cocklebur plant response rating,"[4]; Rate 62 g/ha, Postemergence",3
same,"Plant response rating, Cocklebur","[4]; Rate 250 g/ha, Postemergence",7
same,"Plant response rating, Cocklebur","[4]; Rate 250 g/ha, Preemergence",2
same,"Plant response rating, Cocklebur","[4]; Rate 500 g/ha, Postemergence",7
same,"Plant response rating, Cocklebur","[4]; Rate 500 g/ha, Preemergence",8
same,"Plant response rating, Corn",corn (Zea mays); [11],0
same,Corn plant response rating,"corn (Zea mays); Rate 62 g/ha, Postemergence",1
same,Corn plant response rating,"corn (Zea mays); Rate 125 g/ha, Postemergence",1
same,"Plant response rating, Corn","corn (Zea mays); Rate 125 g/ha, Preemergence",1
same,"Plant response rating, Corn","corn (Zea mays); Rate 250 g/ha, Postemergence",2
same,"Plant response rating, Corn","corn (Zea mays); Rate 250 g/ha, Preemergence",1
same,"Plant response rating, Corn","corn (Zea mays); Rate 500 g/ha, Postemergence",2
same,"Plant response rating, Corn","corn (Zea mays); Rate 500 g/ha, Preemergence",1
same,"Plant response rating, Crabgrass",[5]; [11],3
same,Crabgrass plant response rating,"[5]; Rate 62 g/ha, Postemergence",5
same,Crabgrass plant response rating,"[5]; Rate 125 g/ha, Postemergence",8
same,"Plant response rating, Crabgrass","[5]; Rate 125 g/ha, Preemergence",4
same,"Plant response rating, Crabgrass","[5]; Rate 250 g/ha, Postemergence",8
same,"Plant response rating, Crabgrass","[5]; Rate 250 g/ha, Preemergence",9
same,"Plant response rating, Crabgrass","[5]; Rate 500 g/ha, Postemergence",8
same,"Plant response rating, Crabgrass","[5]; Rate 500 g/ha, Preemergence",10
same,"Plant response rating, Morningglory",[6]; [11],3
same,Morningglory plant response rating,"[6]; Rate 62 g/ha, Postemergence",2
same,Morningglory plant response rating,"[6]; Rate 125 g/ha, Postemergence",8
same,"Plant response rating, Morningglory","[6]; Rate 125 g/ha, Preemergence",3
same,"Plant response rating, Morningglory","[6]; Rate 250 g/ha, Postemergence",10
same,"Plant response rating, Morningglory","[6]; Rate 250 g/ha, Preemergence",5
same,"Plant response rating, Morningglory","[6]; Rate 500 g/ha, Postemergence",10
same,"Plant response rating, Morningglory","[6]; Rate 500 g/ha, Preemergence",9
same,"Plant response rating, Redroot pigweed",[7]; [11],8
same,Redroot pigweed plant response rating,"[7]; Rate 62 g/ha, Postemergence",9
same,Redroot pigweed plant response rating,"[7]; Rate 125 g/ha, Postemergence",10
same,"Plant response rating, Redroot pigweed","[7]; Rate 125 g/ha, Preemergence",9
same,"Plant response rating, Redroot pigweed","[7]; Rate 250 g/ha, Postemergence",10
same,"Plant response rating, Redroot pigweed","[7]; Rate 250 g/ha, Preemergence",10
same,"Plant response rating, Redroot pigweed","[7]; Rate 500 g/ha, Postemergence",10
same,"Plant response rating, Redroot pigweed","[7]; Rate 500 g/ha, Preemergence",10
same,"Plant response rating, Rape",rape (Brassica napus); [11],2
same,Rape plant response rating,"rape (Brassica napus); Rate 62 g/ha, Postemergence",6
same,Rape plant response rating,"rape (Brassica napus); Rate 125 g/ha, Postemergence",6
same,"Plant response rating, Rape","rape (Brassica napus); Rate 125 g/ha, Preemergence",3
same,"Plant response rating, Rape","rape (Brassica napus); Rate 250 g/ha, Preemergence",4
same,"Plant response rating, Rape","rape (Brassica napus); Rate 500 g/ha, Postemergence",7
same,"Plant response rating, Rape","rape (Brassica napus); Rate 500 g/ha, Preemergence",8
same,"Plant response rating, Soybean",soybean (Glycine max); [11],0
same,Soybean plant response rating,"soybean (Glycine max); Rate 62 g/ha, Postemergence",3
same,Soybean plant response rating,"soybean (Glycine max); Rate 125 g/ha, Postemergence",5
same,"Plant response rating, Soybean","soybean (Glycine max); Rate 125 g/ha, Preemergence",1
same,"Plant response rating, Soybean","soybean (Glycine max); Rate 250 g/ha, Postemergence",7
same,"Plant response rating, Soybean","soybean (Glycine max); Rate 250 g/ha, Preemergence",2
same,"Plant response rating, Soybean","soybean (Glycine max); Rate 500 g/ha, Postemergence",7
same,"Plant response rating, Soybean","soybean (Glycine max); Rate 500 g/ha, Preemergence",2
same,"Plant response rating, Sugarbeets",[8]; [11],9
same,Sugarbeets plant response rating,"[8]; Rate 62 g/ha, Postemergence",10
same,Sugarbeets plant response rating,"[8]; Rate 125 g/ha, Postemergence",10
same,"Plant response rating, Sugarbeets","[8]; Rate 125 g/ha, Preemergence",10
same,"Plant response rating, Sugarbeets","[8]; Rate 250 g/ha, Postemergence",10
same,"Plant response rating, Sugarbeets","[8]; Rate 250 g/ha, Preemergence",10
same,"Plant response rating, Sugarbeets","[8]; Rate 500 g/ha, Postemergence",10
same,"Plant response rating, Sugarbeets","[8]; Rate 500 g/ha, Preemergence",10
same,"Plant response rating, Velvetleaf",[9]; [11],2
same,Velvetleaf plant response rating,"[9]; Rate 62 g/ha, Postemergence",6
same,Velvetleaf plant response rating,"[9]; Rate 125 g/ha, Postemergence",7
same,"Plant response rating, Velvetleaf","[9]; Rate 125 g/ha, Preemergence",7
same,"Plant response rating, Velvetleaf","[9]; Rate 250 g/ha, Postemergence",7
same,"Plant response rating, Velvetleaf","[9]; Rate 250 g/ha, Preemergence",7
same,"Plant response rating, Velvetleaf","[9]; Rate 500 g/ha, Postemergence",8
same,"Plant response rating, Velvetleaf","[9]; Rate 500 g/ha, Preemergence",8
same,"Plant response rating, Wheat",[10]; [11],1
same,Wheat plant response rating,"[10]; Rate 62 g/ha, Postemergence",2
same,Wheat plant response rating,"[10]; Rate 125 g/ha, Postemergence",2
same,"Plant response rating, Wheat","[10]; Rate 125 g/ha, Preemergence",1
same,"Plant response rating, Wheat","[10]; Rate 250 g/ha, Postemergence",2
same,"Plant response rating, Wheat","[10]; Rate 250 g/ha, Preemergence",2
same,"Plant response rating, Wheat","[10]; Rate 500 g/ha, Postemergence",4
same,"Plant response rating, Wheat","[10]; Rate 500 g/ha, Preemergence",4
same,"Plant response rating, Wild oats",wild oat (Avena fatua); [11],4
same,Wild oats plant response rating,"wild oat (Avena fatua); Rate 62 g/ha, Postemergence",2
same,Wild oats plant response rating,"wild oat (Avena fatua); Rate 125 g/ha, Postemergence",2
same,"Plant response rating, Wild oats","wild oat (Avena fatua); Rate 125 g/ha, Preemergence",6
same,"Plant response rating, Wild oats","wild oat (Avena fatua); Rate 250 g/ha, Postemergence",2
same,"Plant response rating, Wild oats","wild oat (Avena fatua); Rate 250 g/ha, Preemergence",7
same,"Plant response rating, Wild oats","wild oat (Avena fatua); Rate 500 g/ha, Postemergence",3
same,"Plant response rating, Wild oats","wild oat (Avena fatua); Rate 500 g/ha, Preemergence",8
